# Measured values published in the supplement of paper PMC13380429.
# How the values were obtained:
# Details in all cases: 72 h
# [1] = tested on: Caco-2; assay: cell viability relative to DMSO; higher = less toxic
# [2] = tested on: Calu-3; assay: as above
# [3] = tested on: HepG2; assay: as above
# [4] = tested on: U2OS; assay: as above
# [5] = tested on: Vero E6; assay: as above
# [6] = tested on: Caco-2; assay: relative viability EC50 (midpoint between 100% and the lowest measured viability); higher = less toxic
# [7] = tested on: Calu-3; assay: as above
# [8] = tested on: HepG2; assay: as above
# [9] = tested on: U2OS; assay: as above
# [10] = tested on: Vero E6; assay: as above
# [11] = tested on: Caco-2; assay: drug sensitivity score (DSS) for viability; higher = more toxic; extreme values may be limits of the assay
# [12] = tested on: Calu-3; assay: as above
# [13] = tested on: HepG2; assay: as above
# [14] = tested on: U2OS; assay: as above
# [15] = tested on: Vero E6; assay: as above
Structure (SMILES),cell viability ([1]; 1 nM),cell viability ([1]; 10 nM),cell viability ([1]; 100 nM),cell viability ([1]; 1000 nM),cell viability ([1]; 10000 nM),cell viability ([2]; 1 nM),cell viability ([2]; 10 nM),cell viability ([2]; 100 nM),cell viability ([2]; 1000 nM),cell viability ([2]; 10000 nM),cell viability ([3]; 1 nM),cell viability ([3]; 10 nM),cell viability ([3]; 100 nM),cell viability ([3]; 1000 nM),cell viability ([3]; 10000 nM),cell viability ([4]; 1 nM),cell viability ([4]; 10 nM),cell viability ([4]; 100 nM),cell viability ([4]; 1000 nM),cell viability ([4]; 10000 nM),cell viability ([5]; 1 nM),cell viability ([5]; 10 nM),cell viability ([5]; 100 nM),cell viability ([5]; 1000 nM),cell viability ([5]; 10000 nM),relative viability EC50 [6],relative viability EC50 [7],relative viability EC50 [8],relative viability EC50 [9],relative viability EC50 [10],drug sensitivity score [11],drug sensitivity score [12],drug sensitivity score [13],drug sensitivity score [14],drug sensitivity score [15]
CCCC[C@]1(CC)CS(=O)(=O)c2cc(CNC(CC(=O)O)CC(=O)O)c(OC)cc2[C@@H](c2ccccc2)N1,90%,97.8%,99.7%,96.5%,105%,96.3%,101%,98%,89.5%,100%,105%,112%,108%,97.7%,112%,96.7%,101%,96.8%,104%,104%,95.7%,94.1%,96.5%,91.1%,104%,> 10 µM,> 10 µM,> 10 µM,> 10 µM,> 10 µM,0,0,0,0,0
CS(=O)(=O)c1ccc(Cn2c3c(c4cc(F)cc(F)c42)CCCC3CC(=O)O)cc1 (stereo not given),97.6%,96.4%,96.5%,96%,97.7%,99.7%,98.4%,95.3%,103%,100%,108%,91%,97.3%,95.6%,94%,93.1%,97.2%,93.5%,97.1%,97.6%,98%,101%,100%,99.1%,95.4%,> 10 µM,> 10 µM,> 10 µM,> 10 µM,> 10 µM,0,0,0,0,0
Cc1ccc([N+](=O)[O-])cc1S(=O)(=O)N(C)C,91.7%,88.7%,94.2%,96.1%,99.2%,97.2%,92.8%,94.8%,107%,105%,95.7%,104%,93.1%,99.1%,102%,103%,99.7%,103%,92.6%,99.9%,92.8%,97.9%,95.6%,93.1%,108%,> 10 µM,> 10 µM,> 10 µM,> 10 µM,> 10 µM,0,0,0,0,0
Clc1cccc(-c2nnnn2Cc2cccnc2)c1Cl,97.6%,104%,99.1%,98.4%,91.1%,99.9%,105%,96.2%,98.2%,97.2%,101%,97.5%,105%,101%,103%,97%,95.9%,94.2%,99.3%,94.9%,106%,103%,104%,99.2%,102%,> 10 µM,> 10 µM,> 10 µM,> 10 µM,> 10 µM,0,0,0,0,0
O=C(CCc1ccncc1)NNC(=O)N1Cc2ccccc2Oc2ccc(Cl)cc21,88.1%,99.1%,92.7%,95.6%,98.4%,103%,96.4%,97.3%,87.8%,95.4%,117%,106%,111%,99.9%,107%,96.4%,103%,96.8%,102%,100%,100%,98.4%,101%,94.9%,109%,> 10 µM,> 10 µM,> 10 µM,> 10 µM,> 10 µM,0,0,0,0,0
